Results: ChEMBL document CHEMBL4483862, “Open-source discovery of chemical leads for next-generation chemoprotective antimalarials” (2018)

Tested on: Plasmodium berghei
Experiment: Luciferase/luciferin-expressing antifolate-resistant parasites were used to infect a culture of HepG2 cells that were pre-incubated with compounds. Infected hepatocytes emit light due to the luciferase reaction. Assay results are presented as the percent inhibition of light emission compared to control. […]
Type: functional
Settings: sporozoite; for IC50: read-out: LUCIFERASE INFECTION ASSAY - IC50; for IC90: read-out: LUCIFERASE INFECTION ASSAY - IC90

Structure (SMILES)	IC50 [µM]	IC90 [µM]
COc1ccc(Cc2nnc(S)n2NC(=O)Nc2ccc(Cl)c(Cl)c2)cc1	> 10	> 10
C=CCn1c(SCc2cc([N+](=O)[O-])cc3c2OCOC3)nc2cc(C(=O)O)ccc2c1=O	1.82	6.97
CN(C)c1nc(C=C(C#N)C#N)c(Cl)n1-c1ccc(F)cc1	> 10	> 10
O=C(Nc1nnc(C2CC2)s1)c1cccc(S(=O)(=O)N2CCc3ccccc32)c1	> 10	> 10
Cn1c(N)c(C(=O)COC(=O)C2(c3ccccc3F)CCCC2)c(=O)n(C)c1=O	> 10	> 10
CN(C)c1ccc(/C=C/c2ccc3c4ccccc4ccc3[n+]2-c2ccccc2)cc1	1.07	1.23
C=CCn1c(SCC(=O)Nc2nnc(-c3ccccc3)o2)nc2cc(Cl)ccc2c1=O	> 10	> 10
N#CC(C(=O)COC(=O)c1nc(-c2ccccc2)n(-c2ccccc2)n1)=C1Nc2ccccc2N1	> 10	> 10
Cc1ccc(-c2cs/c(=N\c3ccc(C)c(C)c3)n2/N=C/c2ccc(O)cc2O)cc1	> 10	> 10
CCOC(=O)c1c(NC(=O)C(C)OC(=O)c2ccccc2Sc2ccccc2C#N)sc2c1CCCC2 (configuration not stated)	> 10	> 10
Cc1cc(C)c(C)c(S)c1C	> 10	> 10
O=C(N/N=C/c1ccc([N+](=O)[O-])o1)c1ccc(CN2C(=O)c3cccc4cccc2c34)cc1	> 10	> 10
CCCCc1ccc(NC(=O)/C(C#N)=C/c2ccccc2Cl)cc1	> 10	> 10
CCCCOc1ccc(/C=N/Nc2ccc([N+](=O)[O-])cc2)cc1	> 10	> 10
CCN(c1ccccc1)S(=O)(=O)c1cc(NC(=O)CNCc2ccco2)ccc1Cl	> 10	> 10
Oc1c(C(c2ccc(Cl)cc2Cl)N2CCOCC2)ccc2cccnc12 (configuration not stated)	4.36	8.77
CCn1c(-c2ccccc2)c(C(=O)COC(=O)c2c(NC(C)=O)sc3c2CCCC3)c2ccccc21	> 10	> 10
CCOC(=O)c1c(C)[nH]c(C(=O)C(C)Sc2nnc(-c3ccccc3)c(-c3ccccc3)n2)c1C (configuration not stated)	> 10	> 10
COc1ccccc1NC(=O)c1ccc(NC(=O)Cn2ncc(Cl)c(Cl)c2=O)cc1	3.41	4.54
COc1ccc(S(=O)(=O)N(CC(=O)c2cc(C)n(-c3ccc(Cl)cc3)c2C)Cc2ccccc2)cc1	> 10	> 10
N#CC(C(=O)COC(=O)c1cn(-c2ccccc2)nc1-c1ccccc1)=C1Nc2ccccc2N1	> 10	> 10
O=C(Nc1nc(-c2ccco2)c(-c2ccco2)s1)c1cnc(Cl)c(Cl)c1	> 10	> 10
N=C1C(c2nc3ccccc3[nH]2)C(=O)CN1NC(=O)Cn1nnc(-c2cccc(C(F)(F)F)c2)n1 (configuration not stated)	> 10	> 10
O=C(Nc1nc2c(s1)CCCC2)c1cc(F)c(F)c(F)c1F	0.081	0.624
CC(C)c1ccc2c(c1)/C(=N/Nc1ccc(S(=O)(=O)Nc3ccc(Cl)cc3)cc1[N+](=O)[O-])C(=O)N2	> 10	> 10
Cc1ccc(S(=O)(=O)c2nc(-c3ccccc3)oc2S(=O)(=O)CC(=O)NC(C)C)cc1	> 10	> 10

Structure (SMILES)	IC50 [µM]	IC90 [µM]
Cc1nn(-c2cccc(C(F)(F)F)c2)c2sc(C(=O)NC(=S)N(C)C3CCCCC3)cc12	1.09	1.27
O=C(COC(=O)c1ccccc1Nc1cccc(C(F)(F)F)c1)c1ccc(C2CCCCC2)cc1	> 10	> 10
CCOc1cc(C(=O)N/N=C2/C(=O)N(C(C)C)c3ccccc32)cc(OCC)c1OCC	> 10	> 10
Cn1c(CC(=O)NNC(=O)/C=C/c2cccc(C(F)(F)F)c2)nc2ccccc21	3.4	3.99
CCOC(=O)c1c(C)[nH]c(C(=O)COC(=O)c2nc(-c3ccccc3)n(-c3ccccc3)n2)c1C	> 10	> 10
O=S(=O)(c1ccc(NC(=S)N/N=C2\CC(c3ccccc3)Oc3ccccc32)cc1)N1CCOCC1 (configuration not stated)	8.98	> 10
O=C(NC1CCCc2ccccc21)c1oc2ccccc2c1CSc1nccs1 (configuration not stated)	6.48	> 10
Cc1cc(C(=O)COC(=O)c2ccccc2OCC(=O)Nc2cccc(C(F)(F)F)c2)c(C)n1CC1CCCO1 (configuration not stated)	> 10	> 10
CC1C/C(=C\c2ccco2)c2nc3ccccc3c(C(=O)OCC(=O)N3CC(=O)Nc4ccccc43)c2C1 (configuration not stated)	> 10	> 10
O=C(/C=C/C1=C(N2CCOCC2)C(=C\c2ccc(Cl)cc2)/CC1)C(F)(F)F	> 10	> 10
C=CCN(c1cccc(C(F)(F)F)c1)S(=O)(=O)c1cc(C(=O)Nc2ccc3c(c2)CCC3)ccc1Cl	> 10	> 10
Cc1nc2ccc(N/N=C(/C(=O)Nc3c(Cl)cccc3Cl)C(=O)c3ccccc3)cc2s1	5.17	8.28
CC(C)c1nnc(SCC(=O)Nc2ccc([N+](=O)[O-])cc2)[nH]1	> 10	> 10
CCOc1ccc(-n2c(SCC(=O)N(C)Cc3ccccc3)nc3ccccc32)cc1	> 10	> 10
CC1CCc2nc3ccccc3c(C(=O)OC(C)C(=O)NCCC3=CCCCC3)c2C1 (configuration not stated)	> 10	> 10
COc1ccc(-c2ccc(-c3nc4c(c(=O)[nH]c(=O)n4CC(C)C)n3CC(C)C)o2)c([N+](=O)[O-])c1	> 10	> 10
CN(CC(=O)Nc1ccc(Cl)c(C(F)(F)F)c1)Cc1ccc(O)c2ncccc12	0.0645	0.191
Cc1n[nH]c(=S)n1C1CCCCC1	> 10	> 10
CC(C)C1CCC(C)C(OCC(O)CN2CCN(Cc3ccc4c(c3)OCO4)CC2)C1 (configuration not stated)	> 10	> 10
Cc1ccc(N(CCC#N)C(=O)COC(=O)c2c3c(nc4ccccc24)/C(=C/c2c(F)cccc2Cl)CC3)cc1	> 10	> 10
COc1ccc(-n2c(SCc3nc4ccccc4s3)nc3ccccc32)cc1	> 10	> 10
Cc1c(-c2ccccc2)nc2ccccc2c1C(=O)OCC(=O)c1cc(C)n(Cc2ccco2)c1C	> 10	> 10
C=CCn1c(SCC(=O)c2cc(C)n(-c3ccc(OC)cc3)c2C)nc2sc(-c3ccccc3)cc2c1=O	> 10	> 10
CC(=O)c1c(C)[nH]c(C(=O)OC(c2ccccc2)c2ccc(Cl)cc2)c1C (configuration not stated)	> 10	> 10
C=CCn1c(SCC(=O)Nc2scc(-c3ccc(C(C)(C)C)cc3)c2C(=O)OCC)nc2sc3c(c2c1=O)CCC3	> 10	> 10
CCCCn1c(SCc2cc(=O)oc3cc(C)c(C(C)C)cc23)nc2cc(S(N)(=O)=O)ccc21	> 10	> 10

Structure (SMILES)	IC50 [µM]	IC90 [µM]
CCN(c1ccccc1)S(=O)(=O)c1ccc(C(=O)N2CCN(c3cccc(C)c3C)CC2)cc1	4.15	5.07
COCC(C)n1c(C)cc(C(=O)CSc2ncnc3sc(C)c(C)c23)c1C (configuration not stated)	> 10	> 10
Cc1ccc(Sc2ccc(/C=C/C(=O)c3ccc(Cl)c(Cl)c3Cl)cc2[N+](=O)[O-])cc1	> 10	> 10
C=CCn1c(SC(C(=O)c2c[nH]c3ccccc23)c2ccccc2)nc2ccccc2c1=O (configuration not stated)	8.28	> 10
CC1CCc2c(sc3nc(CN4CCOCC4)nc(N4CCN(S(=O)(=O)/C=C/c5ccccc5)CC4)c23)C1 (configuration not stated)	> 10	> 10
CCN(CC)CCn1c(NC(=O)c2cc3c(C)nn(-c4ccc(Cl)cc4)c3s2)nc2ccccc21	> 10	> 10
O=C(c1ccccc1)C(Sc1nnc(Cc2cccs2)n1CCc1ccccc1)c1ccccc1 (configuration not stated)	> 10	> 10
C=C(C)C(=O)Oc1ccc(Oc2c(F)c(F)c(-c3c(F)c(F)c(Oc4ccc(OC(=O)C(=C)C)cc4)c(F)c3F)c(F)c2F)cc1	> 10	> 10
Cc1cc(Nc2nc3ccccc3nc2N2CCN(/C=C/c3ccccc3)CC2)n(-c2ccccc2)n1	> 10	> 10
CC(C)(C)c1cnnn1-c1ccc(C(=O)/C=C/c2ccccc2)cc1	> 10	> 10
O=C(CSc1nnc(Cc2cccs2)n1C1CCCCC1)c1c[nH]c2ccccc12	> 10	> 10
Cc1ccc(C(C)C)c(OCc2ccc(C(=O)N/N=C/c3cc(C)n(Cc4ccco4)c3C)cc2)c1	> 10	> 10
Brc1ccc(C2C(c3nc4ccccc4[nH]3)=C(c3ccccc3)N=C(c3ccccc3)C2c2nc3ccccc3[nH]2)cc1 (configuration not stated)	> 10	> 10
O=C(OCC(=O)N1N=C(c2ccc(Cl)cc2)CC1c1ccco1)c1[nH]nc2ccccc12 (configuration not stated)	> 10	> 10
O=C(c1cn(-c2ccccc2)nc1-c1cc2ccccc2oc1=O)n1nnc2ccccc21	3.27	3.36
O=C(CC(NC(=O)c1ccccc1Cl)c1ccccc1)Oc1ccc2c(c1)OCO2 (configuration not stated)	> 10	> 10
N#C/C(=C\c1ccc(N(c2ccccc2)c2ccccc2)cc1)C(=O)Nc1nccs1	0.525	1.79
O=C(/C(=C/c1ccc(N2CCOCC2)cc1)c1nc2ccccc2[nH]1)c1cccc(Cl)c1	> 10	> 10
CCOc1ccc(C(=O)c2c(-c3ccccc3)c3c4n(c(COc5cc(C)ccc5C(C)C)nn24)CCCC3)cc1	8.64	> 10
CCC(C)(C)c1ccc(OCC(=O)Nc2cccc(-c3nc(C)sc3C(=O)Nc3cc(Cl)ccc3Cl)c2)c(C(C)(C)CC)c1	> 10	> 10
COc1ccc(-c2nnc(SCC(=O)c3[nH]c(C)c(C(C)=O)c3C)n2C2CCCCC2C)cc1 (configuration not stated)	> 10	> 10
C[C@@H](C(=O)NNC(=O)c1cccc(S(=O)(=O)N2CCOCC2)c1)N1C(=O)C2CC=CCC2C1=O (some centres not stated)	> 10	> 10
COc1ccc(S(=O)(=O)N(C)C)cc1NC(=O)CSc1cc(C)c2ccccc2n1	> 10	> 10
Cc1cc(OCc2nc3ccc(Cl)cc3[nH]2)c(C(C)C)cc1Cl	> 10	> 10
